Patent US9241484B2, “Compositions of dibromomalonamide and their use as biocides” (Dow Global Technologies LLC, priority 2011, dated 2016)

System: mixture of Pseudomonas aeruginosa, Klebsiella pneumoniae, Staphylococcus aureus, and Bacillus subtilis
Test: Growth inhibition assay (microtiter plate-based synergy assay)
Settings: active used alone; dilute mineral salts medium pH 7.5; 37° C., 24 hr; OD580
Excerpt: Growth Inhibition Assay. […] Regardless of the mechanism of action, the impact of a biocide (or combination of biocides) can be measured over time on the basis of an increase in the size of the community.
The assay measures the efficacy of one or more biocides at preventing growth of a consortium of bacteria in a dilute mineral salts medium. The medium contains (in mg/l) the following components: FeCl3.6H2O (1); CaCl2.2H2O (10); MgSO4.7H2O (22.5); (NH4)2SO4 (40); KH2PO4 (10); K2HPO4 (25.5); Yeast Extract (10); and glucose (100). After all components are added to deionized water, the pH of the medium is adjusted to 7.5. Following filter sterilization, aliquots are dispensed in 100 μl quantities to sterile microtiter plate wells. Dilutions of 2,2-dibromomalonamide (“DBMAL”) and/or “Biocide B” are then added to the microtiter plate. After preparing the combinations of actives as illustrated below, each well is inoculated with 100 μl of a cell suspension containing ca. 1×10^6 cells per milliliter of a mixture of Pseudomonas aeruginosa, Klebsiella pneumoniae, Staphylococcus aureus, and Bacillus subtilis. The final total volume of medium in each well is 300 μl. Once prepared as described herein, the concentration of each active ranges from 25 ppm to 0.195 ppm as illustrated in Table 1. The resulting matrix allows testing of eight concentrations of each active and 64 combinations of actives in the ratios (of actives).
Immediately after the microtiter plates are prepared, the optical density (OD) readings for each well is measured at 580 nm and the plates are then incubated at 37° C. for 24 hr. After the incubation period, the plates are gently agitated before OD580 values are collected. The OD580 values at T0 are subtracted from T24 values to determine the total amount of growth (or lack thereof) that occurs. These values are used to calculate the percent inhibition of growth caused by the presence of each biocide and each of the 64 combinations. A 90% inhibition of growth is used as a threshold for calculating synergy index (SI) values with the following equation: Synergy Index=MDBMAL/CDBMAL+MB/CB
where • CDBMAL: Concentration of DBMAL required to inhibit ≧90% of bacterial growth when used alone • CB: Concentration of biocide (B) required to inhibit ≧90% of bacterial growth when used alone. • MDBMAL: Concentration of DBMAL required to inhibit ≧90% of bacterial growth when used in combination with biocide (B). • MB: Concentration of biocide (B) required to inhibit ≧90% of bacterial growth when used in combination with DBMAL The SI values are interpreted as follows: • SI<1: Synergistic combination • SI=1: Additive combination • SI>1: Antagonistic combination
In the Examples below, the amounts of biocides in the solution are measured in mg per liter of solution (mg/l). Since solution densities are approximately 1.00, the mg/l measurement corresponds to weight and can be expressed as parts per million (ppm). Both units may therefore be used interchangeably in the Examples.

| Compound | I90 value (minimum concentration to result in at least 90% inhibition of growth) |
| --- | --- |
| OCl [HOCl, hypochlorous acid] | 0.78 mg/L |
| CC1(C)C(=O)N(Br)C(=O)N1Br [DBDMH, dibromodimethylhydantoin] | 3.13 mg/L |
| OBr [HOBr, hypobromous acid] | 12.5 mg/L |
| NC(=O)C(Br)(Br)C(N)=O [DBMAL, 2,2-dibromomalonamide] | 6.25 mg/L |
| monochlorodimethylhydantoin [MCDMH] | 3.13 mg/L |
| CC1(C)C(=O)N(Cl)C(=O)N1Cl [DCDMH, dichlorodimethylhydantoin] | 0.78 mg/L |
